Experiments:
[1] = test system: anti-apoptotic protein Bcl-2; experiment: Western Blotting of Bcl-2 in K562 cells; type: cell-based, human; details: leukemia cells K562, 10 μmol/L, 24 h
Method: (§1) The STAT3 and ERK signal pathways can regulate cyclins and apoptosis genes, and in order to verify the effects of […] and mogrol, the expression status of downstream genes of STAT3 and ERK was detected, wherein the influences of the three mogrosides and analogs thereof, i.e. Mogrol I E1, Mogrol II A2 and mogrol, on Bcl-2 and P21 proteins in the histiocytic lymphoma U937 cells, human melanoma A875 cells and leukemia cells K562 were determined, respectively.
(§2) The regulation of Bcl-2 and P21 proteins by mogrosides and analog thereof to the was detected by Western Blotting, specifically: histiocytic lymphoma U937 cells, human melanoma A875 cells and leukemia cells K562 (1×10^6 cells/well) were inoculated into a 6-well culture plate overnight, and 0 and 10 μmol/L of the mogrosides and analogs thereof were added respectively, and kept cultured for 24 h. […]
(§3) The protein concentration was measured with bovine serum albumin (BSA) as the standard. 50 μg of the total proteins were separated by polyacrylamide gel electrophoresis with 12% SDS, and electrophoretically transferred to a PVDF membrane (polyvinylidene fluoride membrane), and blocked for 1 h by 5% of skim milk (containing 0.1% of Tween 20), and then antibodies P21, Bcl-2 and β-actin were added, wherein the primary antibody was incubated at 4° C. overnight (β-actin was used as reference loading amount); the membrane was washed for 3 times with TBS-T, 5 min each time; secondary antibody marked by horseradish peroxidase (HRP) was added for incubation at room temperature for 1 h, the membrane was washed with rinse solution (TBS-T) for 3 times, 10 min each time, and then ECL was added for incubation in dark for 5 min, and subsequently, a fluorescence imaging analyzer was used for image development and scanning analysis.

[2] = test system: cycle regulatory protein P21; experiment: Western Blotting of P21 in U937 cells; type: cell-based; details: 10 μmol/L, 24 h
Method: as §1, §2, §3

[3] = test system: anti-apoptotic protein Bcl-2; experiment: Western Blotting of Bcl-2 in U937 cells; type: cell-based; details: 10 μmol/L, 24 h
Method: as §1, §2, §3

leukemia cells K562 [4] = experiment: Cell cycle distribution, PI staining, flow cytometer; type: cell-based, human; details: leukemia cells K562, 10 μmol/L, 24 h
Source text: (§4) The influences of Mogroside I E1, Mogroside II A2 and mogrol on the cell cycle distribution of the histiocytic lymphoma U937 cells, the human melanoma A875 cells and the leukemia cells K562.
(§5) The cell cycle arrest achieved by drugs is an important approach to the inhibition of cancer cell proliferation.

leukemia cells K562 [5] = experiment: Cell apoptosis, Annexin V-FITC/PI, flow cytometer; type: cell-based, human; details: leukemia cells K562, 10 μmol/L, 24 h
Method: (§6) Lymphoma U937 cells, human melanoma A875 cells and leukemia cells K562 in logarithmic growth phase were selected, and after the respective culture with 0 and 10 μmol/L of the mogrosides and analogs thereof (i.e. Mogroside I E1, Mogroside II A2 and mogrol) for 24 h, cells were collected and washed twice with 200 μl of cold PBS, and then the cells were collected again; 100 μl of binding buffer was added for re-suspending the cells, and after the addition of 2 μl of Annexin V-FITC and well mixing, the resulting mixture was placed in dark at room temperature for 10 min, and then 5 μl of propidium iodide (PI) was added and then well mixed; the mixture was placed in dark at room temperature for 10 min, and detected by flow cytometer, and the results are shown in FIGS. 13-15.

[6] = test system: human melanoma A875 cells; experiment: Cell apoptosis, Annexin V-FITC/PI, flow cytometer; type: cell-based; details: for cell apoptosis: 10 μmol/L, 24 h
Method: as §6, with “Mogroside” for “Lymphoma U937 cells, human melanoma A875 cells and leukemia cells K562 in logarithmic growth phase were selected, and after the respective culture with 0 and 10 μmol/L of the mogrosides and analogs thereof (i.e. Mogroside”

[7] = test system: human melanoma A875 cells; experiment: Cell cycle distribution, PI staining, flow cytometer; type: cell-based; details: human melanoma A875 cells, 10 μmol/L, 24 h
Source text: as §4, §5

[8] = test system: histiocytic lymphoma U937 cells; experiment: as above; type: cell-based; details: 24 h; for proportion of cells in G0/G1 phase with the rise of the concentration: U937 cells, 0, 1, 10, 150 and 250 μmol/L; for cell cycle distribution (proportion of cells of G0/G1 phase): U937 cells, 10 μmol/L
Source text: as §4, §5

[9] = test system: cycle regulatory protein P21; experiment: Western Blotting of P21 in A875 cells; type: cell-based; details: human melanoma A875 cells, 10 μmol/L, 24 h
Method: as §1, §2, §3

[10] = test system: human melanoma A875 cells; experiment: Cell morphology, Hoechst 33258 staining, fluorescence microscope; type: cell-based; details: A875 melanoma cells, 10, 100 and 250 μmol/L, 24-hour culture
Method: (§7) Lymphoma U937 cells, human melanoma A875 cells and leukemia cells K562 in logarithmic growth phase were selected, and the concentrations of the cells were adjusted to 1×10^4 cells/mL, and the cells were transferred to a 6-well plate for culture, and after the 24-hour culture, drugs were added to achieve final concentrations of 0, 10, 100 and 250 μmol/L, wherein only whole medium was added to the negative control groups, while Mogroside II A2 was added to the positive control groups, after 24-hour culture, waste solution was removed, and fixing solution was added to each well for fixing for 25 min, and then the resulting mixture was washed twice, 3 min each time, and then Hoechst 33258 staining solution was added for staining in dark at room temperature for 30 min, and the cell morphology variation was observed using a fluorescence microscope.

lymphoma U937 cells [11] = experiment: as above; type: cell-based; details: lymphoma U937 cells, 10, 100 and 250 μmol/L, 24-hour culture
Method: as §7

[12] = test system: cycle regulatory protein P21; experiment: Western Blotting of P21 in K562 cells; type: cell-based, human; details: leukemia cells K562, 10 μmol/L, 24 h
Method: as §1, §2, §3

[13] = test system: anti-apoptotic protein Bcl-2; experiment: Western Blotting of Bcl-2 in A875 cells; type: cell-based; details: human melanoma A875 cells, 10 μmol/L, 24 h
Method: as §1, §2, §3

leukemia cells K562 [14] = experiment: Cell morphology, Hoechst 33258 staining, fluorescence microscope; type: cell-based, human; details: leukemia cells K562, 10, 100 and 250 μmol/L, 24-hour culture
Method: as §7

lymphoma U937 cells [15] = experiment: Cell apoptosis, Annexin V-FITC/PI, flow cytometer; type: cell-based; details: 10 μmol/L, 24 h
Method: as §6

[16] = test system: prostate cancer cells, renal carcinoma cells, head and neck squamous cell carcinoma cells, lung cancer cells, ovarian cancer cells, breast cancer cells …; experiment: Tests of examples 3 to 8 on further cancer cells; type: cell-based; details: pancreatic, liver and colon cancer cells
[17] = test system: lymphoma U937 cells, human melanoma A875 cells and leukemia cells K562; experiment: Tests of examples 3 to 8 taken together; type: cell-based; details: Western Blotting, cell cycle, apoptosis, Hoechst, MTT

Compound	expression of anti-apoptotic protein Bcl-2 [1]	expression of cycle regulatory protein P21 [2]	expression of anti-apoptotic protein Bcl-2 [3]	cell cycle distribution (cell cycle arrest) (leukemia cells K562 [4])	cell apoptosis (leukemia cells K562 [5])	cell apoptosis [6]	amount for cell apoptosis with the rise of the concentration ([6]; different concentrations (FIG. 16))	cell cycle distribution (proportion of cells in the G0/G1 phase) [7]	proportion of cells in G0/G1 phase with the rise of the concentration [8]	cell cycle distribution (proportion of cells of G0/G1 phase) [8]	expression of cycle regulatory protein P21 [9]	cell morphology variation (Hoechst 33258) [10]	cell morphology variation (Hoechst 33258) (lymphoma U937 cells [11])	expression of cycle regulatory protein P21 [12]	expression of anti-apoptotic protein Bcl-2 [13]	cell morphology variation (Hoechst 33258) (leukemia cells K562 [14])	cell apoptosis (lymphoma U937 cells [15])	results of the tests of examples 3 to 8 on further cancer cells [16]	results of the tests of examples 3 to 8 [17]
C[C@H](CC[C@@H](O)C(C)(C)O)[C@H]1CC[C@@]2(C)[C@H]3CC=C4[C@@H](CC[C@H](O[C@@H]5O[C@H](CO[C@@H]6O[C@H](CO)[C@@H](O)[C@H](O)[C@H]6O)[C@@H](O)[C@H](O)[C@H]5O)C4(C)C)[C@]3(C)[C@H](O)C[C@]12C [Mogroside II A2]	significantly down-regulated	significantly up-regulated	significantly down-regulated	arrested	induce the apoptosis	induce the apoptosis	the amount for cell apoptosis increases	G0/G1 arrest	gradually increased	G0/G1 arrest	significantly up-regulated	typical variation of cell apoptosis	identical to the results of the human melanoma A875 cells	significantly up-regulated	significantly down-regulated	identical to the results of the human melanoma A875 cells	induce the apoptosis	–	–
C[C@H](CC[C@@H](O)C(C)(C)O)[C@H]1CC[C@@]2(C)[C@H]3CC=C4[C@@H](CC[C@H](O[C@@H]5O[C@H](CO)[C@@H](O)[C@H](O)[C@H]5O)C4(C)C)[C@]3(C)C(O)C[C@]12C (some centres unmarked) [Mogroside I E1]	significantly down-regulated	significantly up-regulated	significantly down-regulated	arrested	induce the apoptosis	induce the apoptosis	–	G0/G1 arrest	gradually increased	G0/G1 arrest	significantly up-regulated	identical to the results of Mogroside II A2	identical to the results of Mogroside II A2	significantly up-regulated	significantly down-regulated	identical to the results of Mogroside II A2	induce the apoptosis	–	–
C[C@H](CC[C@@H](O[C@@H]1O[C@H](CO[C@@H]2O[C@H](CO)[C@@H](O)[C@H](O)[C@H]2O)[C@@H](O)[C@H](O)[C@H]1O[C@@H]1O[C@H](CO)[C@@H](O)[C@H](O)[C@H]1O)C(C)(C)O)[C@H]1CC[C@@]2(C)[C@H]3CC=C4[C@H](CC[C@H](O[C@@H]5O[C@H](CO[C@@H]6O[C@H](CO)[C@@H](O)[C@H](O)[C@H]6O)[C@@H](O)[C@H](O)[C@H]5O[C@@H]5O[C@H](CO)[C@@H](O)[C@H](O)[C@H]5O)C4(C)C)[C@]3(C)[C@H](O)C[C@]12C [Mogroside VI]	–	–	–	–	–	–	–	–	–	–	–	–	–	–	–	–	–	identical to the results of the lymphoma U937 cells	identical to those of Mogrol I E1 and Mogrol II A2
Mogrol III	–	–	–	–	–	–	–	–	–	–	–	–	–	–	–	–	–	identical to the results of the lymphoma U937 cells	identical to those of Mogrol I E1 and Mogrol II A2
C[C@H](CC[C@@H](O[C@@H]1O[C@H](CO[C@@H]2O[C@H](CO)[C@@H](O)[C@H](O)[C@H]2O)[C@@H](O)[C@H](O)[C@H]1O[C@@H]1O[C@H](CO)[C@@H](O)[C@H](O)[C@H]1O)C(C)(C)O)[C@H]1CC[C@@]2(C)[C@@H]3CC=C4[C@@H](CC[C@H](O[C@@H]5O[C@H](CO[C@@H]6O[C@H](CO)[C@@H](O)[C@H](O)[C@H]6O)[C@@H](O)[C@H](O)[C@H]5O)C4(C)C)[C@]3(C)[C@H](O)C[C@]12C [Mogroside V]	–	–	–	–	–	–	–	–	–	–	–	–	–	–	–	–	–	identical to the results of the lymphoma U937 cells	identical to those of Mogrol I E1 and Mogrol II A2
Mogrol IV	–	–	–	–	–	–	–	–	–	–	–	–	–	–	–	–	–	identical to the results of the lymphoma U937 cells	identical to those of Mogrol I E1 and Mogrol II A2

From patent US10617734B2, “STAT3 and ERK signal pathway inhibitor comprising mogrosides and analogs thereof” (BEIJING UNIVERSITY OF AGRICULTURE, priority 2014, dated 2020)
